Test results: patent US20180051346A1, “METHODS AND MEANS FOR SUBTYPING INVASIVE LOBULAR BREAST CANCER” (Stichting Het Nederlands Kanker Instituut-Antoni van …, priority 2015, published 2018)

Test system: ILC cell lines
Assay: Drug sensitivity on the Sanger cell line panel, differential response between IR and HR subtype cell lines
Assay type: cell-based
Settings: IR subtype cell lines (10) vs HR subtype cell lines (5); two-sided t-test between the AUC of the dose-response curves; Sanger response data (Garnett et al., 2012)
Procedure: Drug sensitivity was assessed on the Sanger cell line panel (internal version 17). We used the cell lines common in our ILC cell line panel and in the Sanger cell line panel. We used cell line AU565 instead of SK-BR-3, which is derived from the same patient. Among the 262 drugs, we focused our assessment on 88 agents that had measurement in at least three cell lines per subtype. With this dataset, we performed a two-sided t-test between the AUC of the dose-response curves of the cell lines in the two subtypes, correcting for multiple testing with the Benjamini-Hochberg method.
To identify candidate therapeutic options, we profiled a set of 15 ILC cell lines as in vitro models. We used their gene expression profiles to map them to the IR (10 cell lines) and HR (5 cell lines). We then used the response data for 88 drugs on a subset of these cell lines, as provided by the Wellcome Trust Sanger Institute (Garnett et al., 2012. Nature 483: 570-575), to test for differential drug sensitivity between the subtypes. We retained six drugs at an FDR<0.25 (FIG. 2).

Row | Compound | differential drug sensitivity between the subtypes
1 | CCc1c2c(nc3ccc(O)cc13)-c1cc3c(c(=O)n1C2)COC(=O)[C@]3(O)CC [SN-38, (+)-(4S)-4,11-diethyl-4,9-dihydroxy-1H-pyrano[3′,4′:6,7]-indolizino[1,2-b]quinoline-3,14(4H,12H)-dione] | more sensitive
2 | Bleomycin | more sensitive
3 | N.N.[Cl][Pt][Cl] [Cisplatin] | more sensitive
